Measured values reported in US20250235404A1, “PEG-LIPIDS AND LIPID NANOPARTICLES” (CAPSTAN THERAPEUTICS, INC., priority 2022, published 2025).

Assays:
[1] = Physical-chemical properties of the LNP / tLNP: hydrodynamic diameter and PDI by dynamic light scattering; type: physicochemical; details: for PDI* (polydispersity index) / Hydrodynamic diameter (nm): LNP whose PEG-lipid is the labelled compound, mCherry mRNA, N/P 6; for PDI* (polydispersity index): 50:10:38.5:1.5 mol/mol; for Hydrodynamic diameter (nm): ionizable cationic lipid/DSPC/cholesterol/PEG-lipid 50:10:38.5:1.5 mol/mol, pH 7.4 Tris buffer, 25° C.; for formation of LNP encapsulating mRNA: PEG-lipid at 1.5 mol % in LNP with mCherry mRNA
Description: The ability to incorporate various of the disclosed PEG-lipids into LNP encapsulating mRNA was assessed using mRNA encoding the fluorescent marker mCherry.
(§1) The mRNA was encapsulated in LNP using a self-assembly process in which an aqueous solution of mRNA at pH=3.5 is rapidly mixed with a solution of lipids dissolved in ethanol, then followed by stepwise phosphate and Tris buffer dilution and tangential flow filtration (TFF) purification. LNP composition in this study was: an ionizable cationic lipid of Formula 1a as shown below/distearoylphosphatidylcholine/cholesterol/PEG-lipid (50:10:38.5:1.5 mol/mol) and were encapsulated at an N/P ratio (the ratio of positively-chargeable lipid amine (N=nitrogen) groups to negatively-charged nucleic acid phosphate (P) groups) at 6. LNPs were frozen at −80° C. LNP were made in which the PEG-lipid was DMG-PEG2000, as a benchmark, or one of Compounds VI-7, VI-8, B-46, or B-47. The diameter of the nanoparticles was measured by dynamic light scattering using a Zetasizer Nano ZS (Malvern Instruments Ltd., Malvern, UK) instrument. Size measurement was carried out in pH 7.4 Tris buffer at 25° C. in relevant disposable capillary cells. A non-invasive back scatter system (NIBS) with a scattering angle of 173° was used for size measurements.
CleanCap® mCherry 5-methoxyuridine (5moU) mRNA (L-7203) was purchased from TriLink. mRNA was encapsulated in LNP using a self-assembly process in which an aqueous solution of mRNA at pH=3.5 is rapidly mixed with a solution of lipids dissolved in ethanol, then followed by stepwise phosphate and Tris buffer dilution and TFF purification. LNP composition in this study was: an ionizable cationic lipid as shown in Example 42/distearoylphosphatidylcholine/cholesterol/DMG-PEG 2000/functionalized PEG-lipid (50:10:38.5:1.4:0.1 mol/mol) and were encapsulated at an N/P ratio (the ratio of positively-chargeable […] amine (N=nitrogen) groups to negatively-charged nucleic acid phosphate (P) groups) at 6. The hydrodynamic diameter of the nanoparticles was measured by dynamic light scattering using a Zetasizer Nano ZS (Malvern Instruments Ltd., Malvern, UK) instrument.
The particle size (hydrodynamic diameter) and polydispersity index of the targeted lipid nanoparticles were determined using dynamic light scattering (DLS) on a Malvern Zetasizer Nano ZS (Malvern Instruments, Worcestershire, UK). Size measurement was carried out in pH 7.4 Tris buffer at 25° C. in relevant disposable capillary cells. A non-invasive back scatter system (NIBS) with a scattering angle of 173° was used for size measurements.

[2] = Encapsulation efficiency of mRNA in LNP / tLNP (RiboGreen RNA assay); type: physicochemical; details: LNP whose PEG-lipid is the labelled compound; 50:10:38.5:1.5 mol/mol, mCherry mRNA, N/P 6
From the text: as §1
mRNA content was determined using a Quant-iT™ RiboGreen RNA assay kit (Invitrogen™). Encapsulation efficiency was calculated by determining the unencapsulated mRNA content by measuring the fluorescence intensity (Fi) upon the addition of RiboGreen reagent to the LNP and comparing this value to the total fluorescence intensity (Ft) of the RNA content that is obtained upon lysis of the LNPs by 1% Triton X-100, where % encapsulation=(Ft−Fi)/Ft×100).

HEK293F cells = experiment: Transfection of HEK293F cells with mCherry mRNA encapsulated in LNP (flow cytometry, Aqua Live/Dead); type: cell-based, human; details: LNP comprising the labelled PEG-lipid; for expression level of mCherry (gMFI) compared with the benchmark LNP (DMG-PEG2000) / transfection at the lower doses: 24 hours; for expression level of mCherry (gMFI) compared with the benchmark LNP (DMG-PEG2000): FIG. 14C; for transfection at the lower doses: lower LNP doses
Description: The ability of the LNP formed in the preceding Example to transfect HEK293F cells, a human embryonic kidney cell-derived cell line, with the mCherry mRNA was assessed. Viral Production Cells (Gibco Catalog number: A35347), a derivative of the HEK 293F cell line adapted to a chemically-defined, serum-free and protein-free medium (LV-MAX™ Production Medium; Gibco Catalog number: A3583401) were grown in suspension, sedimented, resuspended at about 1×10^6 cells/mL, and 200 μL distributed to the wells of a 96-well U-bottom plate. Frozen LNP were thawed and diluted to 100 μg mRNA/mL with sterile water for injection. An appropriate volume of LNP was added to provide 0, 0.3, 0.6, or 2 μg RNA per well in duplicate and mixed by re-pipetting. The cells were then incubated for 1 hour at 37° C. in a CO2 incubator, washed three times with phosphate buffered saline, resuspended in 400 μL of medium in a deep-well 96-well plate, and incubated at 37° C. in a CO2 incubator on an orbital shaker at 900 RPM.
Twenty-four hours after addition of the LNP to the cells they were stained with Aqua Live/Dead (Thermo: catalog L34965) to assess cell viability. Transfection rate and expression level in the transfected cells was assessed by flow cytometry based on mCherry fluorescence.

Molecule	PDI* (polydispersity index) [1]	Hydrodynamic diameter (nm) [1] [nm]	formation of LNP encapsulating mRNA [1]	Encapsulation Efficiency (%) [2] [%]	expression level of mCherry (gMFI) compared with the benchmark LNP (DMG-PEG2000) (HEK293F cells)	transfection at the lower doses (HEK293F cells; FIG. 14B)	transfection of live cells (transfection rate) (HEK293F cells; highest LNP dose tested, 24 hours after addition, mCherry fluorescence, FIG. 14B) [%]
CCCCCCCC(CCCCCCC)CCC(=O)OCC(COC(=O)CCC(CCCCCCC)CCCCCCC)CC(=O)OCCOCCOCCOCCOCCOCCOCCOCCOCCOCCOCCOCCOCCOCCOCCOCCOCCOCCOCCOCCOCCOCCOCCOCCOCCOCCOCCOCCOCCOCCOCCOCCOCCOCCOCCOCCOCCOCCOCCOCCOCCOCCOCCOCCOCCOCc1ccc(OC)cc1 [Compound B-47]	0.12	98	formed LNP	68	performed comparably	minimal transfection	
CCCCCCCCCCCCCCCCCC(=O)OCC(COC(=O)CCCCCCCCCCCCCCCCC)CC(=O)OCCOCCOCCOCCOCCOCCOCCOCCOCCOCCOCCOCCOCCOCCOCCOCCOCCOCCOCCOCCOCCOCCOCCOCCOCCOCCOCCOCCOCCOCCOCCOCCOCCOCCOCCOCCOCCOCCOCCOCCOCCOCCOCCOCCOCCOCc1ccc(OC)cc1 [Compound B-46]	0.04	88	formed LNP	85	substantially higher expression levels	substantial levels of transfection	~90
1,2-dimyristoyl-glycero-3-methoxypolyethylene glycol-2000 [DMG-PEG2000, reference compound]	0.03	82		96			
